Patent US20240239767A1 (AstraZeneca AB, priority 2022, published 2024)

Legend:
[1] = molecular target: T1, potassium ion channel hERG (human Ether-á-go-go-Related Gene) (Homo sapiens, UniProt Q12809); experiment: Assay 5 - hERG assay (SyncroPatch 384PE patch clamp, CHO cells); assay type: cell-based; details: geometric mean, CHO cells over-expressing hERG, read-out: Assay 5 (hERG Hu CHO IF EPh CR-Syncro) GMean IC50
T1 construct: expressed in transfected cells; host or cells: Chinese hamster ovary K1 (CHO)
T1 sequence (Q12809 whole entry): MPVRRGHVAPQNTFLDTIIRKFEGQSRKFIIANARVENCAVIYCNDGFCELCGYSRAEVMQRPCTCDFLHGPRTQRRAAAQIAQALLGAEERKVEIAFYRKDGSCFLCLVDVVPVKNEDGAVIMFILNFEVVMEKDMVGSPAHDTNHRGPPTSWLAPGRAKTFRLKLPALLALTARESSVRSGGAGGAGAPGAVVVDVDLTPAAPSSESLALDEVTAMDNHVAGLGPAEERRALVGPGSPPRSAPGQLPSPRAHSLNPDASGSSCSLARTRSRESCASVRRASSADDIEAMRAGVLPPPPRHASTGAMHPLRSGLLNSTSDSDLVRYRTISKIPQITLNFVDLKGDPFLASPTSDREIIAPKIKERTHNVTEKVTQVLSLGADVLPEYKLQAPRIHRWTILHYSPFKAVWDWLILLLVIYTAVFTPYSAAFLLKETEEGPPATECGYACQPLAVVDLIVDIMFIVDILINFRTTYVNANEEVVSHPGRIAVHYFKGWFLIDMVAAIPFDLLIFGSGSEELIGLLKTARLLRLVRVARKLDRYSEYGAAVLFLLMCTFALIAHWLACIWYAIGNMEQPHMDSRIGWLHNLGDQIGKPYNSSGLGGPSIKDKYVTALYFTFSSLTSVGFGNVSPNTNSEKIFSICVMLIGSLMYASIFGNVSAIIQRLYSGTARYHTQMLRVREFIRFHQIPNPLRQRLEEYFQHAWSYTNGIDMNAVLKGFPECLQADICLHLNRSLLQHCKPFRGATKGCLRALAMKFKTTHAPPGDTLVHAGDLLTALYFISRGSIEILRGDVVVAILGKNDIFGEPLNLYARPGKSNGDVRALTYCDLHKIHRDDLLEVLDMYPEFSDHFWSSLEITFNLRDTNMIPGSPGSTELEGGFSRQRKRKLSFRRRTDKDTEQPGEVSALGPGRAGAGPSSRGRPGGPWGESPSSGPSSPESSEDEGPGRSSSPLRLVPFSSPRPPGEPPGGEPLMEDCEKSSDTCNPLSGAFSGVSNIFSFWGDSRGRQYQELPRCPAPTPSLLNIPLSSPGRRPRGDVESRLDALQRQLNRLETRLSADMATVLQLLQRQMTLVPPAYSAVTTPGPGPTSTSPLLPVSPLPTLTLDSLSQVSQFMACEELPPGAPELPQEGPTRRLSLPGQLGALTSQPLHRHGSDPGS
Procedure: Assay 5—hERG Assay (Human Ether-á-go-go-Related Gene)
This assay (human Ether-á-go-go-Related Gene) measures activity of the compounds at the potassium ion channel hERG (human Ether-á-go-go-Related Gene).
Experiments were performed on the SyncroPatch 384PE high throughput patch clamp platform at room temperature and medium resistance chips with 4 patch holes per site. Chinese hamster ovary K1 (CHO) cell lines over-expressing the ion channel of choice (hERG) were used in assay-ready format and kept in liquid nitrogen or were used from live culture. Cells were either thawed and diluted in HBSS or were detached from flasks and resuspended in HBSS. HBSS comprised 140 mM NaCl, 4 mM KCl, 10 mM HEPES and 5 mM Glucose (pH 7.4). The internal patch clamp solution was KF 120 mM, KCl 20 mM, HEPES 10 mM, EGTA 10 mM, and 25 μM Escin (pH 7.2). After the sealing process was complete, the external solution was exchanged for external patch clamp solution comprising NaCl 80 mM, KCl 4 mM, HEPES 10 mM, CaCl2 2 mM, MgCl2 1 mM, glucose 5 mM, and NMDG 60 mM (pH 7.4). All solutions were stored at room temperature, except Escin, which was stored at 4° C. All test compounds were dispensed in greiner-bio 384 well plates and tested in a 6 point cumulative assay (final DMSO concentration 0.33%). Only wells that passed previously agreed acceptance criteria for this platform were used in this analysis (30 MegaOhm seal resistance, Z prime>0.4 and current size>0.2 nA).

[2] = molecular target: GSK3b (Glycogen synthase kinase-3 beta) (Homo sapiens, UniProt P49841); experiment: Assay 6 - GSK3b assay (ThermoFisher, FRET Z-Lyte); assay type: biochemical; details: geometric mean; ATP Conc: 10.000 μM; read-out: Assay 6 (GSK3B FRET-Z-Lyte CR) GMean IC50 (μM) ATP Conc: 10.000
GSK3b (Glycogen synthase kinase-3 beta), sequence (P49841 whole entry): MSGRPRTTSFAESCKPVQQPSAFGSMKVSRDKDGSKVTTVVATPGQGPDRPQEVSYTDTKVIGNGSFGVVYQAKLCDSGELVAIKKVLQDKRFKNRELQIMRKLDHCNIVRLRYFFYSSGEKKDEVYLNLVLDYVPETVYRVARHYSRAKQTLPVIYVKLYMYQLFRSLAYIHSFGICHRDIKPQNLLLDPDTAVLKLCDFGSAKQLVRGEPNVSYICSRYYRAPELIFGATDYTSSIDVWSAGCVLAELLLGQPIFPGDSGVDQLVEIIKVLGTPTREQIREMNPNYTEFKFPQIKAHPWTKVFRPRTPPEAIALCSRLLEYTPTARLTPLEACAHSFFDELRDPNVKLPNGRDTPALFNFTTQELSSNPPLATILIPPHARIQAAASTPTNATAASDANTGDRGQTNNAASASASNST
Procedure: This assay measures the activity of the compounds at GSK3b (Glycogen synthase kinase-3 beta).
The test compounds were screened in 1% DMSO (final) in the well. For 10-point titrations, 3-fold serial dilutions are conducted from the starting concentration of 10 μM.
• Bar-coded Corning, low volume NBS, black 384-well plate • 1. 2.5 μL—4× Test Compound or 100 nL 100× plus 2.4 μL kinase buffer • 2. 5 μL—2× Peptide/Kinase Mixture • 3. 2.5 μL—4× ATP Solution • 4. 30-second plate shake • 5. 60-minute Kinase Reaction incubation at room temperature • 6. 5 μL—Development Reagent Solution • 7. 30-second plate shake • 8. 60-minute Development Reaction incubation at room temperature • 9. Read on fluorescence plate reader and analyse the data
In step 2, the 2× GSK3β (GSK3 beta)/Ser/Thr (Glycogen synthase kinase-3 beta/Serine/Threonine) 09 mixture is prepared in 50 mM HEPES (4-(2-hydroxyethyl)-1-piperazineethanesulfonic acid) pH 7.5, 0.01% BRIJ-35, 10 mM MgCl2, 1 mM EGTA (egtazic acid). The final 10 μL Kinase Reaction consists of 0.22-0.92 ng GSK3β (GSK3 beta) and 2 μM Ser/Thr 09 in 50 mM HEPES pH 7.5, 0.01% BRIJ-35, 10 mM MgCl2, 1 mM EGTA.
In step 3 the ATP Solution is diluted to a 4× working concentration in Kinase Buffer (50 mM HEPES pH 7.5, 0.01% BRIJ-35, 10 mM MgCl2, 1 mM EGTA).
In Step 6 the Development Reagent is diluted 1:512 in Development Buffer (10× Novel PKC Lipid Mix: 2 mg/mL Phosphatidyl Serine, 0.2 mg/mL DAG in 20 mM HEPES, pH 7.4, 0.3% CHAPS).
SelectScreen® Kinase Profiling Service uses XLfit from IDBS. The dose response curve is curve fit to model number 205 (sigmoidal dose-response model).

PCSK9 = PCSK9 (Homo sapiens, UniProt Q8NBP7, G670E/V474I); experiment: biochemical
PCSK9, sequence (Q8NBP7 with tags, fused parts or gaps V474I/G670E): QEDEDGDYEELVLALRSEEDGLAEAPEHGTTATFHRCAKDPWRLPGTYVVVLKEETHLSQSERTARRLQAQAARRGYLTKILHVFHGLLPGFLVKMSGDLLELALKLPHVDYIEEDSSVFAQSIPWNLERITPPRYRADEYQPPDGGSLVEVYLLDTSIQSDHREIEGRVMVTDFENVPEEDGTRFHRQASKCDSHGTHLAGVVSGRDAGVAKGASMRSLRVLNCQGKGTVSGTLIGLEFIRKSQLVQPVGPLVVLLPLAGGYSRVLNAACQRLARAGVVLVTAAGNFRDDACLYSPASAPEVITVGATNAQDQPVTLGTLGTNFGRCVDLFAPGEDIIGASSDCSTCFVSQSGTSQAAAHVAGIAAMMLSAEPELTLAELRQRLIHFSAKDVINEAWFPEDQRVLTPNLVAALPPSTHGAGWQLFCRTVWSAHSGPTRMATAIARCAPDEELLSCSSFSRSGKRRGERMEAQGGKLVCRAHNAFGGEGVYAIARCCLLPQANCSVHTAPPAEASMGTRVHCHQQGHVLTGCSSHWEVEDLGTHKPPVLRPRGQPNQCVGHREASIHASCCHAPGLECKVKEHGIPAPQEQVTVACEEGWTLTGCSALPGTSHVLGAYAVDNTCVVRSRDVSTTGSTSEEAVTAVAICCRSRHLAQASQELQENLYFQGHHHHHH

| Compound | IC50 [1] | IC50 [2] | IC50 (PCSK9) |
| --- | --- | --- | --- |
| Fc1cccc(F)c1-c1ccc(N[C@H]2CC[C@H](Nc3nc4cccnc4[nH]3)C2)nc1 [Example 68, (1S,3S)—N^1-(5-(2,6-Difluorophenyl)pyridin-2-yl)-N^3-(3H-imidazo[4,5-b]pyridin-2-yl)cyclopentane-1,3-diamine] | 6.55 µM | > 10 µM |  |
| O=c1ccccn1-c1ccc(N[C@H]2CC[C@H](Nc3nc4cccnc4[nH]3)C2)cc1 [Example 74, 1-(4-(((1S,3S)-3-((3H-Imidazo[4,5-b]pyridin-2-yl)amino)cyclopentyl)amino)phenyl)pyridin-2(1H)-one] | > 40 µM | > 10 µM | 0.173 µM |
| O=c1ccccn1-c1ccc(N[C@H]2CC[C@H](Nc3nc4ccc(Br)cc4s3)C2)nc1 [Example 6, 6′-(((1S,3S)-3-((6-Bromobenzo[d]thiazol-2-yl)amino)cyclopentyl)amino)-2H-[1,3′-bipyridin]-2-one] | 2.64 µM | > 10 µM | 2.73 µM |
| O=c1ccccn1-c1ccc(N[C@H]2CC[C@H](Nc3nc4cc(C5CC5)cnc4[nH]3)C2)nc1 [Example 55, 6′-(((1S,3S)-3-((6-Cyclopropyl-3H-imidazo[4,5-b]pyridin-2-yl)amino)cyclopentyl)amino)-2H-[1,3′-bipyridin]-2-one] | > 40 µM | 1.77 µM | 0.0026 µM |
| Fc1ccccc1-c1ccc(N[C@H]2CC[C@H](Nc3nc4cccnc4[nH]3)C2)nc1 [Example 69, (1S,3S)—N^1-(5-(2-Fluorophenyl)pyridin-2-yl)-N^3-(3H-imidazo[4,5-b]pyridin-2-yl)cyclopentane-1,3-diamine] | 1.17 µM | > 10 µM | 0.083 µM |
| Cn1c(=O)n(-c2ccc(N[C@H]3CC[C@H](Nc4nc5cccnc5[nH]4)C3)nc2)c2ncccc21 [Example 45, 3-(6-(((1S,3S)-3-((3H-Imidazo[4,5-b]pyridin-2-yl)amino)cyclopentyl)amino)pyridin-3-yl)-1-methyl-1,3-dihydro-2H-imidazo[4,5-b]pyridin-2-one] | > 40 µM | > 10 µM |  |
| O=c1ccccn1-c1ccc(N[C@H]2CC[C@H](Nc3nc4ccc(Br)cc4o3)C2)nc1 [Example 3, 6′-(((1S,3S)-3-((6-Bromobenzo[d]oxazol-2-yl)amino)cyclopentyl)amino)-2H-[1,3′-bipyridin]-2-one] | 4.2 µM | > 10 µM | 0.0082 µM |
| O=c1ccccn1-c1ccc(N[C@H]2CC[C@H](Nc3nc4ncccc4o3)C2)nc1 [Compound 89, 6′-(((1S,3S)-3-(Oxazolo[4,5-b]pyridin-2-ylamino)cyclopentyl)amino)-2H-[1,3′-bipyridin]-2-one] | > 40.1 µM | > 10 µM | 0.259 µM |
| Cn1cccc(-c2cnc(N[C@H]3CC[C@H](Nc4nc5cccnc5[nH]4)C3)cn2)c1=O [Example 75, 3-(5-(((1S,3S)-3-((3H-Imidazo[4,5-b]pyridin-2-yl)amino)cyclopentyl)amino)pyrazin-2-yl)-1-methylpyridin-2(1H)-one] | > 40 µM | > 10 µM | 0.0168 µM |
| Cc1ncc(-c2ccc(=O)n(-c3ccc(N[C@H]4CC[C@H](Nc5nc6cccnc6[nH]5)C4)nc3)c2)cn1 [Example 53, 6′-(((1S,3S)-3-((3H-Imidazo[4,5-b]pyridin-2-yl)amino)cyclopentyl)amino)-5-(2-methylpyrimidin-5-yl)-2H-[1,3′-bipyridin]-2-one] | > 40 µM | 3.86 µM | 0.019 µM |
| COc1ccccc1-c1ccc(N[C@H]2CC[C@H](Nc3nc4cccnc4[nH]3)C2)nc1 [Example 66, (1S,3S)—N^1-(3H-Imidazo[4,5-b]pyridin-2-yl)-N^3-(5-(2-methoxyphenyl)pyridin-2-yl)cyclopentane-1,3-diamine] | 1.94 µM | > 10 µM | 0.166 µM |
| Fc1cccc(OC(F)(F)F)c1-c1ccc(N[C@H]2CC[C@H](Nc3nc4cccnc4[nH]3)C2)nc1 [Example 70, (1S,3S)—N^1-(5-(2-Fluoro-6-(trifluoromethoxy)phenyl)pyridin-2-yl)-N^3-(3H-imidazo[4,5-b]pyridin-2-yl)cyclopentane-1,3-diamine] |  | > 10 µM | 0.0244 µM |
| O=c1ccc2ccccc2n1-c1ccc(N[C@H]2CC[C@H](Nc3nc4cccnc4[nH]3)C2)nc1 [Example 33, 1-(6-(((1S,3S)-3-((3H-Imidazo[4,5-b]pyridin-2-yl)amino)cyclopentyl)amino)pyridin-3-yl)quinolin-2(1H)-one] | > 40 µM | > 10 µM |  |
| Fc1cccnc1-c1ccc(N[C@H]2CC[C@H](Nc3nc4cccnc4[nH]3)C2)nc1 [Example 30, (1S,3S)—N^1-(3-Fluoro-[2,3′-bipyridin]-6′-yl)-N^3-(3H-imidazo[4,5-b]pyridin-2-yl)cyclopentane-1,3-diamine] | 3.15 µM | > 10 µM | 0.0345 µM |
| Fc1cccc(OC(F)F)c1-c1ccc(N[C@H]2CC[C@H](Nc3nc4cccnc4[nH]3)C2)nc1 [Example 32, (1S,3S)—N^1-(5-(2-(Difluoromethoxy)-6-fluorophenyl)pyridin-2-yl)-N^3-(3H-imidazo[4,5-b]pyridin-2-yl)cyclopentane-1,3-diamine] | 2.22 µM | > 10 µM | 0.021 µM |
| O=c1ccccn1-c1ccc(N[C@H]2CC[C@H](Nc3nc4cc(CO)ccc4s3)C2)nc1 [Example 84, 6′-(((1S,3S)-3-((5-(Hydroxymethyl)benzo[d]thiazol-2-yl)amino)cyclopentyl)amino)-2H-[1,3′-bipyridin]-2-one] | > 40.1 µM | > 10 µM | 0.239 µM |
| N#Cc1ccc2sc(N[C@H]3CC[C@H](Nc4ccc(-n5ccccc5=O)cn4)C3)nc2c1 [Example 9, 2-(((1S,3S)-3-((2-Oxo-2H-[1,3′-bipyridin]-6′-yl)amino)cyclopentyl)amino)benzo[d]thiazole-5-carbonitrile] | 3.56 µM | 1.51 µM | 0.0179 µM |
| O=c1ccccn1-c1ccc(N[C@H]2CC[C@H](Nc3nc4ccccc4o3)C2)nc1 [Example 1, 6′-(((1S,3S)-3-(Benzo[d]oxazol-2-ylamino)cyclopentyl)amino)-2H-[1,3′-bipyridin]-2-one] | > 40 µM | > 10 µM | 0.0343 µM |
| Cc1ccc2nc(N[C@H]3CC[C@H](Nc4ccc(-n5ccccc5=O)cn4)C3)oc2c1 [Example 2, 6′-(((1S,3S)-3-((6-Methylbenzo[d]oxazol-2-yl)amino)cyclopentyl)amino)-2H-[1,3′-bipyridin]-2-one] | 13.2 µM | > 10 µM | 0.0118 µM |
| CP(C)(=O)c1cnc2[nH]c(N[C@H]3CC[C@H](Nc4ccc(-n5ccccc5=O)cn4)C3)nc2c1 [Example 58, 6′-(((1S,3S)-3-((6-(Dimethylphosphoryl)-3H-imidazo[4,5-b]pyridin-2-yl)amino)cyclopentyl)amino)-2H-[1,3′-bipyridin]-2-one] | > 40 µM |  | 0.22 µM |
| O=c1ccccn1-c1ccc(N[C@H]2CC[C@H](Nc3nc4ccc(OC(F)F)cc4o3)C2)nc1 [Example 85, 6′-(((1S,3S)-3-((6-(Difluoromethoxy)benzo[d]oxazol-2-yl)amino)cyclopentyl)amino)-2H-[1,3′-bipyridin]-2-one] |  |  | 0.0146 µM |
